Laboratory results from PubChem BioAssay AID2060342 (Molecular Pharmacology Branch, DTP, NCI, 2025).

System: 171881-019-R-J1-PDC multicell spheroid viability
Assay: Anticancer human tumor 171881-019-R-J1-PDC patient-derived invasive breast carcinoma cell line growth inhibition [IpAb]
Details: for IC50: curve of first compound; for viability, T/C: stronger effect = lower value
Procedure, shortened: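 Spheroids of 60% malignant cells, 25% HUVEC and 15% MSC were exposed to targeted agents combined with ipatasertib or abemaciclib. Doses started at or near clinical Cmax (10 microM when unknown) and fell in half-log steps.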
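Further: spheroids exposed to the agents for seven days before readout.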

Q: With `Cn1ncc(Cl)c1-c1cc(C(=O)NC(CN)Cc2cccc(F)c2)sc1Cl` (stereo not given) + CCN1CCN(Cc2ccc(Nc3ncc(F)c(-c4cc(F)c5nc(C)n(C(C)C)c5c4)n3)nc2)CC1 as the molecule, how does the IC50 (second compound 0.01 µM) read?
A: 183 nM

Q: What about the IC50 (second compound 0.0316 µM) of the same molecule?
A: 176 nM

Q: What about the IC50 (second compound 0.1 µM) of the same molecule?
A: 167 nM

Q: And the IC50 (second compound 0.316 µM)?
A: 207 nM

Q: And the IC50 (second compound 1 µM)?
A: 345 nM

Q: And the viability, T/C (second compound 0.01 µM, first compound 0.0316 µM)?
A: 116%

Q: And the viability, T/C (second compound 0.01 µM, first compound 0.1 µM)?
A: 69.1%

Q: And the viability, T/C (second compound 0.01 µM, first compound 0.316 µM)?
A: 31.4%

Q: What about the viability, T/C (second compound 0.01 µM, first compound 1 µM) of the same molecule?
A: 16.8%

Q: What about the viability, T/C (second compound 0.01 µM, first compound 3.16 µM) of the same molecule?
A: 3.11%

Q: What about the viability, T/C (second compound 0.01 µM, first compound 10 µM) of the same molecule?
A: 0.48%

Q: And the viability, T/C (second compound 0.0316 µM, first compound 0.0316 µM)?
A: 116%

Q: And the viability, T/C (second compound 0.0316 µM, first compound 0.1 µM)?
A: 67.4%

Q: What about the viability, T/C (second compound 0.0316 µM, first compound 0.316 µM) of the same molecule?
A: 31.1%

Q: And the viability, T/C (second compound 0.0316 µM, first compound 1 µM)?
A: 15.9%

Q: What about the viability, T/C (second compound 0.0316 µM, first compound 3.16 µM) of the same molecule?
A: 4.15%

Q: What about the viability, T/C (second compound 0.0316 µM, first compound 10 µM) of the same molecule?
A: 0.13%

Q: What about the viability, T/C (second compound 0.1 µM, first compound 0.0316 µM) of the same molecule?
A: 103%

Q: And the viability, T/C (second compound 0.1 µM, first compound 0.1 µM)?
A: 66.2%

Q: And the viability, T/C (second compound 0.1 µM, first compound 0.316 µM)?
A: 28%

Q: And the viability, T/C (second compound 0.1 µM, first compound 1 µM)?
A: 17.3%

Q: What about the viability, T/C (second compound 0.1 µM, first compound 3.16 µM) of the same molecule?
A: 3.84%

Q: What about the viability, T/C (second compound 0.1 µM, first compound 10 µM) of the same molecule?
A: 0.58%

Q: What about the viability, T/C (second compound 0.316 µM, first compound 0.0316 µM) of the same molecule?
A: 107%

Q: What about the viability, T/C (second compound 0.316 µM, first compound 0.1 µM) of the same molecule?
A: 73.2%

Q: What about the viability, T/C (second compound 0.316 µM, first compound 0.316 µM) of the same molecule?
A: 34%

Q: And the viability, T/C (second compound 0.316 µM, first compound 1 µM)?
A: 19.4%

Q: What about the viability, T/C (second compound 0.316 µM, first compound 3.16 µM) of the same molecule?
A: 4.04%

Q: What about the viability, T/C (second compound 0.316 µM, first compound 10 µM) of the same molecule?
A: 0.34%

Q: What about the viability, T/C (second compound 1 µM, first compound 0.0316 µM) of the same molecule?
A: 122%

Q: And the viability, T/C (second compound 1 µM, first compound 0.1 µM)?
A: 87.9%

Q: What about the viability, T/C (second compound 1 µM, first compound 0.316 µM) of the same molecule?
A: 50.1%

Q: What about the viability, T/C (second compound 1 µM, first compound 1 µM) of the same molecule?
A: 27.3%

Q: And the viability, T/C (second compound 1 µM, first compound 3.16 µM)?
A: 8.61%

Q: And the viability, T/C (second compound 1 µM, first compound 10 µM)?
A: 0.61%
